Measurements: patent US8791123B2, “Substituted pyrazolo[1,5-a]pyrimidine compounds as Trk kinase inhibitors” (Array Biopharma, Inc., priority 2009, dated 2014)
Where two headings read alike, the source gives them in different places.

Key:
[1] = target: TrkA (histidine-tagged recombinant human TrkA, cytoplasmic domain) (Homo sapiens (Human), UniProt P04629); test: TrkA ELISA Assay; type: biochemical; settings: Table 1; ELISA, 500 μM ATP; read-out: TrkA Enzyme IC50
Outline: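 ELISA read-out: a peroxidase-linked anti-phosphotyrosine antibody (PY20, 0.2 μg/mL) with TMB substrate, absorbance at 450 nm after acid stop. The plate-bound substrate was poly(Glu,Ala,Tyr; 6:3:1) at 0.025 mg/mL, phosphorylated by the recombinant His-tagged human TrkA cytoplasmic domain in the presence of inhibitors.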

[2] = target: Human Jak2 kinase domain (Homo sapiens (Human), UniProt O60674); test: Jak2 Inhibition Assay (Omnia kinase assay); type: biochemical; settings: read-out: Jak2 Enzyme IC50
[3] = Table 1, 500 μM ATP, >1000 nM when >50% inhibition not observed at 1000 nM

Human Jak2 kinase domain, sequence (O60674 808-1132): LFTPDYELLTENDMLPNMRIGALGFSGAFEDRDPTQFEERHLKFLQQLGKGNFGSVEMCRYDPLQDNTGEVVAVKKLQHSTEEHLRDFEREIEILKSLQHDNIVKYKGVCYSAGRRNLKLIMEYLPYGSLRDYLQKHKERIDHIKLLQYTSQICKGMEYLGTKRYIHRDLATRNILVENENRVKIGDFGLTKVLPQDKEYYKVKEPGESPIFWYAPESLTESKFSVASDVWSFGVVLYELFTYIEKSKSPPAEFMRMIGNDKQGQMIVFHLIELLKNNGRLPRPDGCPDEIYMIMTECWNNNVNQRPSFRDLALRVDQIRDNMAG
TrkA (histidine-tagged recombinant human TrkA, cytoplasmic domain), sequence (P04629 440-796): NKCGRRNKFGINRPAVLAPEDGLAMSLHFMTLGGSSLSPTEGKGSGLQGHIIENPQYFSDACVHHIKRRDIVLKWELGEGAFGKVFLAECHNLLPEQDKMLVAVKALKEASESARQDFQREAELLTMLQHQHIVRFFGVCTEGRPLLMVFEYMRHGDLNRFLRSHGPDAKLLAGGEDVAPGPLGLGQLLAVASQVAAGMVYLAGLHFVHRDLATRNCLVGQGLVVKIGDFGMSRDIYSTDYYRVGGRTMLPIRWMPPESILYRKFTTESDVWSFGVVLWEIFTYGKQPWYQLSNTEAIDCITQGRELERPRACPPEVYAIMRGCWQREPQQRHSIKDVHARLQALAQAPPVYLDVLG

Structure (SMILES) | IC50 [1] [µM] | IC50 [2, 3] [µM] | IC50 [2] [µM]
O=C(NCC(F)F)c1cnn2ccc(N3CCC[C@@H]3c3cncc(F)c3)nc12 [Example 134, (R)-N-(2,2-difluoroethyl)-5-(2-(5-fluoropyridin-3-yl)pyrrolidin-1-yl)pyrazolo[1,5-a]pyrimidine-3-carboxamide] | 0.0074 | > 1 | –
O=C(Nc1ccccn1)c1cnn2ccc(N3CCC[C@@H]3c3cc(F)ccc3F)nc12 [Example 2, (R)-5-(2-(2,5-difluorophenyl)pyrrolidin-1-yl)-N-(pyridin-2-yl)pyrazolo[1,5-a]pyrimidine-3-carboxamide] | 0.0007 | > 1 | –
C[C@H](O)[C@@H](CO)NC(=O)c1cnn2ccc(N3CCC[C@@H]3c3cc(F)ccc3F)nc12 [Example 176, 5-((R)-2-(2,5-difluorophenyl)pyrrolidin-1-yl)-N-((2R,3S)-1,3-dihydroxybutan-2-yl)pyrazolo[1,5-a]pyrimidine-3-carboxamide] | 0.0272 | > 1 | –
O=C(N[C@H]1CC[C@H](O)CC1)c1cnn2ccc(N3CCC[C@@H]3c3cc(F)ccc3F)nc12 [Example 7, 5-((R)-2-(2,5-difluorophenyl)pyrrolidin-1-yl)-N-((trans)-4-hydroxycyclohexyl)pyrazolo[1,5-a]pyrimidine-3-carboxamide] | 0.00045 | 0.107 | –
Cc1ncc(F)cc1[C@H]1CCCN1c1ccn2ncc(C(=O)NC(C)C)c2n1 [Example 184, (R)-5-(2-(5-fluoro-2-methylpyridin-3-yl)pyrrolidin-1-yl)-N-isopropylpyrazolo[1,5-a]pyrimidine-3-carboxamide] | 0.0074 | > 1 | –
O=C(NOC[C@@H](O)CO)c1cnn2ccc(N3CCC[C@@H]3c3cc(F)ccc3F)nc12 [Example 88, 5-((R)-2-(2,5-difluorophenyl)pyrrolidin-1-yl)-N—((S)-2,3-dihydroxypropoxy)pyrazolo[1,5-a]pyrimidine-3-carboxamide] | 0.00613 | > 1 | –
CC1(C)OCC(COc2ccc(F)cc2[C@H]2CCCN2c2ccn3ncc(C(=O)NC4CC4)c3n2)O1 (stereo partly drawn) [Example 204, N-cyclopropyl-5-((2R)-2-(2-((2,2-dimethyl-1,3-dioxolan-4-yl)methoxy)-5-fluorophenyl)pyrrolidin-1-yl)pyrazolo[1,5-a]pyrimidine-3-carboxamide] | 0.0166 | > 1 | –
O=C(c1cnn2ccc(N3CCC[C@@H]3c3cc(F)ccc3F)nc12)N1CC[C@H](O)C1 [Example 18, (5-((R)-2-(2,5-difluorophenyl)pyrrolidin-1-yl)pyrazolo[1,5-a]pyrimidin-3-yl)((S)-3-hydroxypyrrolidin-1-yl)methanone] | 0.0383 | > 1 | –
Cc1ncc(F)cc1[C@H]1CCCN1c1ccn2ncc(C(=O)N[C@H]3CC[C@H](O)C3)c2n1 [Example 196, 5-((R)-2-(5-fluoro-2-methylpyridin-3-yl)pyrrolidin-1-yl)-N-((1S,3S)-3-hydroxycyclopentyl)pyrazolo[1,5-a]pyrimidine-3-carboxamide] | 0.0068 | > 1 | –
Cc1cccnc1NC(=O)c1cnn2ccc(N3CCC[C@@H]3c3cc(F)ccc3F)nc12 [Example 3, (R)-5-(2-(2,5-difluorophenyl)pyrrolidin-1-yl)-N-(3-methylpyridin-2-yl)pyrazolo[1,5-a]pyrimidine-3-carboxamide] | 0.0023 | > 1 | –
O=C(N[C@H]1CC[C@H](O)C1)c1cnn2ccc(N3CCC[C@@H]3c3cc(F)ccc3F)nc12 [Example 169, 5-((R)-2-(2,5-difluorophenyl)pyrrolidin-1-yl)-N-((1S,3S)-3-hydroxycyclopentyl)pyrazolo[1,5-a]pyrimidine-3-carboxamide] | 0.0009 | 0.759 | –
COc1ncc(F)cc1[C@H]1CCCN1c1ccn2ncc(C(=O)NCCCCO)c2n1 [Example 151, (R)-5-(2-(5-fluoro-2-methoxypyridin-3-yl)pyrrolidin-1-yl)-N-(4-hydroxybutyl)pyrazolo[1,5-a]pyrimidine-3-carboxamide] | 0.0014 | > 1 | –
C[C@@H](CO)NC(=O)c1cnn2ccc(N3CCC[C@@H]3c3cc(F)ccc3F)nc12 [Example 177, 5-((R)-2-(2,5-difluorophenyl)pyrrolidin-1-yl)-N-((S)-1-hydroxypropan-2-yl)pyrazolo[1,5-a]pyrimidine-3-carboxamide] | 0.0018 | > 1 | –
NS(=O)(=O)CCNC(=O)c1cnn2ccc(N3CCC[C@@H]3c3cc(F)ccc3F)nc12 [Example 47, (R)-5-(2-(2,5-difluorophenyl)pyrrolidin-1-yl)-N-(2-sulfamoylethyl)pyrazolo[1,5-a]pyrimidine-3-carboxamide] | 0.0015 | – | > 1
CC1(C)CC[C@H](c2cc(F)ccc2F)N1c1ccn2ncc(C(=O)NC3CC3)c2n1 [Example 68, (R)—N-cyclopropyl-5-(5-(2,5-difluorophenyl)-2,2-dimethylpyrrolidin-1-yl)pyrazolo[1,5-a]pyrimidine-3-carboxamide] | 0.0066 | > 1 | –
O=C(N[C@H]1CC[C@H](O)C1)c1cnn2ccc(N3CCC[C@@H]3c3cncc(F)c3)nc12 [Example 105, 5-((R)-2-(5-fluoropyridin-3-yl)pyrrolidin-1-yl)-N-((1S,3S)-3-hydroxycyclopentyl)pyrazolo[1,5-a]pyrimidine-3-carboxamide] | 0.0254 | > 1 | –
O=C(NC1CCC1)c1cnn2ccc(N3CCC[C@@H]3c3cc(F)ccc3F)nc12 [Example 14, (R)—N-cyclobutyl-5-(2-(2,5-difluorophenyl)pyrrolidin-1-yl)pyrazolo[1,5-a]pyrimidine-3-carboxamide] | 0.00055 | 0.47 | –
COc1ncc(F)cc1[C@H]1CCCN1c1ccn2ncc(C(N)=O)c2n1 [Example 82, (R)-5-(2-(5-fluoro-2-methoxypyridin-3-yl)pyrrolidin-1-yl)pyrazolo[1,5-a]pyrimidine-3-carboxamide] | 0.00255 | – | > 1
CC(C)(CN1CCOCC1)NC(=O)c1cnn2ccc(N3CCC[C@@H]3c3cc(F)ccc3F)nc12 [Example 9, (R)-5-(2-(2,5-difluorophenyl)pyrrolidin-1-yl)-N-(2-methyl-1-morpholinopropan-2-yl)pyrazolo[1,5-a]pyrimidine-3-carboxamide] | 0.00345 | > 1 | –
CC(C)(C)NC(=O)c1cnn2ccc(N3CCC[C@@H]3c3cc(F)c[nH]c3=O)nc12 [Example 202, (R)—N-tert-butyl-5-(2-(5-fluoro-2-oxo-1,2-dihydropyridin-3-yl)pyrrolidin-1-yl)pyrazolo[1,5-a]pyrimidine-3-carboxamide] | 0.0193 | > 1 | –
CC1(NC(=O)c2cnn3ccc(N4CCC[C@@H]4c4cncc(F)c4)nc23)CCC1 [Example 102, (R)-5-(2-(5-fluoropyridin-3-yl)pyrrolidin-1-yl)-N-(1-methylcyclobutyl)pyrazolo[1,5-a]pyrimidine-3-carboxamide] | 0.0052 | > 1 | –
O=C(NC1CC1)c1cnn2ccc(N3CCC[C@@H]3c3cc(F)ccc3OCC(O)CO)nc12 (stereo partly drawn) [Example 210, N-cyclopropyl-5-((2R)-2-(2-(2,3-dihydroxypropoxy)-5-fluorophenyl)pyrrolidin-1-yl)pyrazolo[1,5-a]pyrimidine-3-carboxamide] | 0.0033 | > 1 | –
Cc1ncc(F)cc1[C@H]1CCCN1c1ccn2ncc(C(=O)N[C@@H]3CCC[C@H]3O)c2n1 [Example 197, 5-((R)-2-(5-fluoro-2-methylpyridin-3-yl)pyrrolidin-1-yl)-N-((1R,2R)-2-hydroxycyclopentyl)pyrazolo[1,5-a]pyrimidine-3-carboxamide] | 0.0048 | > 1 | –
O=C(NC[C@@H](O)CO)c1cnn2ccc(N3CCC[C@@H]3c3cc(F)ccc3C(F)(F)F)nc12 [Example 63, N—((R)-2,3-dihydroxypropyl)-5-((R)-2-(5-fluoro-2-(trifluoromethyl)phenyl)pyrrolidin-1-yl)pyrazolo[1,5-a]pyrimidine-3-carboxamide] | 0.00455 | > 1 | –
O=C(c1cnn2ccc(N3CCC[C@@H]3c3cc(F)ccc3F)nc12)N1CC[C@@H](O)C1 [Example 19, (5-((R)-2-(2,5-difluorophenyl)pyrrolidin-1-yl)pyrazolo[1,5-a]pyrimidin-3-yl)((R)-3-hydroxypyrrolidin-1-yl)methanone] | 0.0742 | > 1 | –
Nc1ncc(F)cc1[C@H]1CCCN1c1ccn2ncc(C(=O)N3CCC3)c2n1 [Example 221, (R)-(5-(2-(2-amino-5-fluoropyridin-3-yl)pyrrolidin-1-yl)pyrazolo[1,5-a]pyrimidin-3-yl)(azetidin-1-yl)methanone] | 0.0493 | > 1 | –
Cn1cc(F)cc([C@H]2CCCN2c2ccn3ncc(C(=O)Nc4ccc(F)cn4)c3n2)c1=O [Example 239, (R)-5-(2-(5-fluoro-1-methyl-2-oxo-1,2-dihydropyridin-3-yl)pyrrolidin-1-yl)-N-(5-fluoropyridin-2-yl)pyrazolo[1,5-a]pyrimidine-3-carboxamide] | 0.0101 | > 1 | –
COc1ncc(F)cc1[C@H]1CCCN1c1ccn2ncc(C(=O)NC3CCN(CCO)CC3)c2n1 [Example 159, (R)-5-(2-(5-fluoro-2-methoxypyridin-3-yl)pyrrolidin-1-yl)-N-(1-(2-hydroxyethyl)piperidin-4-yl)pyrazolo[1,5-a]pyrimidine-3-carboxamide] | 0.0043 | > 1 | –
O=C(N[C@H]1CC[C@H](O)CC1)c1cnn2ccc(N3CCC[C@@H]3c3cccc(F)c3)nc12 [Example 35, 5-((R)-2-(3-fluorophenyl)pyrrolidin-1-yl)-N-((trans)-4-hydroxycyclohexyl)pyrazolo[1,5-a]pyrimidine-3-carboxamide] | 0.0012 | 0.278 | –
